From patent US9546173B2 (Novartis AG, priority 2012, dated 2017)

molecular target: activated ERK2 (Homo sapiens (Human), UniProt P28482); assay: Activated ERK2 kinase assay (AlphaScreen, ERKtide peptide phosphorylation); type: biochemical; conditions: […] ERK2, 200 nM ERKtide peptide, 35 μM ATP, 30 min preincubation; read-out: ERK2 IC50
Sequence (P28482 whole entry): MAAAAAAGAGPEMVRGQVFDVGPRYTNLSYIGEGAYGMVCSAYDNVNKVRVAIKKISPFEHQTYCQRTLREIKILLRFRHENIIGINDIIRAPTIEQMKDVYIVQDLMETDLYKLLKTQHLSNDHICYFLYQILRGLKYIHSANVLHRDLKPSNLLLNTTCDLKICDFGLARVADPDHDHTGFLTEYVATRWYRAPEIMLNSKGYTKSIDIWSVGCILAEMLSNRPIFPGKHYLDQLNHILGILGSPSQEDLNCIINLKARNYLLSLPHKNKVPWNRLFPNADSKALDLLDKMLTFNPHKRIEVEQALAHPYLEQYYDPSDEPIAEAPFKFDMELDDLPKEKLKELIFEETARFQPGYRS

Compared with `CC(C)Nc1ncc2c(n1)CN(C(=O)N[C@H](CO)c1ccccc1)C2(C)C` [compound 74, (S)-N-(2-hydroxy-1-phenylethyl)-2-(isopropylamino)-5,5-dimethyl-5H-pyrrolo[3,4-d]pyrimidine-6(7H)-carboxamide], `CC1(C)c2cnc(NCC3CCCO3)nc2CN1C(=O)N[C@H](CO)c1ccccc1` (stereo partly drawn) [compound 75, N-((S)-2-hydroxy-1-phenylethyl)-5,5-dimethyl-2-(((tetrahydrofuran-2-yl)methyl)amino)-5H-pyrrolo[3,4-d]pyrimidine-6(7H)-carboxamide] is 22-fold higher in IC50: 122 nM for the first, 2640 nM for the second. The first is the more potent here.

`O=C(NCc1ccc(Cl)cc1)N1Cc2nc(NC3CCOCC3)ncc2C12CCC2` [compound 76, N-(4-chlorobenzyl)-2′-((tetrahydro-2H-pyran-4-yl)amino)spiro[cyclobutane-1,5′-pyrrolo[3,4-d]pyrimidine]-6′(7′H)-carboxamide] and `CCC1(C)c2cnc(NC3CCOCC3)nc2CN1C(=O)NCc1ccc(Cl)cc1` (centres unmarked) [compound 78, N-(4-chlorobenzyl)-5-ethyl-5-methyl-2-((tetrahydro-2H-pyran-4-yl)amino)-5H-pyrrolo[3,4-d]pyrimidine-6(7H)-carboxamide] are within 1.5-fold of each other in IC50: 31 nM for the first, 22 nM for the second.

Compared with `O=C(N[C@H](CO)c1ccccc1)N1Cc2nc(NC3CCOCC3)ncc2C12CCC2` [compound 77, (S)-N-(2-hydroxy-1-phenylethyl)-2′-((tetrahydro-2H-pyran-4-yl)amino)spiro[cyclobutane-1,5′-pyrrolo[3,4-d]pyrimidine]-6′(7′H)-carboxamide], `CC[C@@]1(C)c2cnc(NC3CCOCC3)nc2CN1C(=O)N[C@H](CO)c1ccccc1` [compound 79, (S)-5-ethyl-N-((S)-2-hydroxy-1-phenylethyl)-5-methyl-2-((tetrahydro-2H-pyran-4-yl)amino)-5H-pyrrolo[3,4-d]pyrimidine-6(7H)-carboxamide] is 75-fold higher in IC50: 13 nM for the first, 971 nM for the second. The first is the more potent here.

First: CC[C@]1(C)c2cnc(NC3CCOCC3)nc2CN1C(=O)N[C@H](CO)c1ccccc1 [compound 80, (R)-5-ethyl-N-((S)-2-hydroxy-1-phenylethyl)-5-methyl-2-((tetrahydro-2H-pyran-4-yl)amino)-5H-pyrrolo[3,4-d]pyrimidine-6(7H)-carboxamide]
Second: C[C@@H](NC(=O)N1Cc2nc(NC3CCOCC3)ncc2C1(C)CO)c1ccccc1 (stereo partly drawn) [compound 91, 5-(hydroxymethyl)-5-methyl-N-((R)-1-phenylethyl)-2-((tetrahydro-2H-pyran-4-yl)amino)-5H-pyrrolo[3,4-d]pyrimidine-6(7H)-carboxamide]
The IC50 of the first is 30-fold lower: 22 nM for the first, 657 nM for the second.

Compared with `CC1(C)c2cnc(N[C@H]3CC[C@H](C#N)CC3)nc2CN1C(=O)N[C@H](CO)c1ccccc1` [compound 81, 2-(((1r,4S)-4-cyanocyclohexyl)amino)-N-((S)-2-hydroxy-1-phenylethyl)-5,5-dimethyl-5H-pyrrolo[3,4-d]pyrimidine-6(7H)-carboxamide], `CC1(C)c2cnc(NC3CCCCC3)nc2CN1C(=O)N[C@H](CO)c1ccccc1` [compound 86, (S)-2-(cyclohexylamino)-N-(2-hydroxy-1-phenylethyl)-5,5-dimethyl-5H-pyrrolo[3,4-d]pyrimidine-6(7H)-carboxamide] is 5.2-fold lower in IC50: 114 nM for the first, 22 nM for the second. The second is the more potent here.

`CN1CCC(Nc2ncc3c(n2)CN(C(=O)N[C@H](CO)c2ccccc2)C3(C)C)CC1=O` (stereo partly drawn) [compound 82, N-((S)-2-hydroxy-1-phenylethyl)-5,5-dimethyl-2-((1-methyl-2-oxopiperidin-4-yl)amino)-5H-pyrrolo[3,4-d]pyrimidine-6(7H)-carboxamide] and `CN1CC(Nc2ncc3c(n2)CN(C(=O)N[C@H](CO)c2ccccc2)C3(C)C)CCC1=O` (stereo partly drawn) [compound 84, N-((S)-2-hydroxy-1-phenylethyl)-5,5-dimethyl-2-((1-methyl-6-oxopiperidin-3-yl)amino)-5H-pyrrolo[3,4-d]pyrimidine-6(7H)-carboxamide] are within 1.5-fold of each other in IC50: 208 nM for the first, 164 nM for the second.

First: CN1CCC(Nc2ncc3c(n2)CN(C(=O)N[C@H](CO)c2ccccc2)C3(C)C)CC1=O (stereo partly drawn) [compound 83, N-((S)-2-hydroxy-1-phenylethyl)-5,5-dimethyl-2-((1-methyl-2-oxopiperidin-4-yl)amino)-5H-pyrrolo[3,4-d]pyrimidine-6(7H)-carboxamide]
Second: CC1(C)c2cnc(NC3CCC(=O)NC3)nc2CN1C(=O)N[C@H](CO)c1ccccc1 (stereo partly drawn) [compound 85, N-((S)-2-hydroxy-1-phenylethyl)-5,5-dimethyl-2-((6-oxopiperidin-3-yl)amino)-5H-pyrrolo[3,4-d]pyrimidine-6(7H)-carboxamide]
The IC50 of the first is 22-fold higher: 1160 nM for the first, 53 nM for the second. The second is the more potent here.

First: Cn1cc(-c2cccc(CNC(=O)N3Cc4nc(NC5CCOCC5)ncc4C3(C)C)c2)cn1 [compound 87, 5,5-dimethyl-N-(3-(1-methyl-1H-pyrazol-4-yl)benzyl)-2-((tetrahydro-2H-pyran-4-yl)amino)-5H-pyrrolo[3,4-d]pyrimidine-6(7H)-carboxamide]
Second: CC1(C)c2cnc(NC3CCOCC3)nc2CN1C(=O)NCc1cccc(C(N)=O)c1 [compound 88, N-(3-carbamoylbenzyl)-5,5-dimethyl-2-((tetrahydro-2H-pyran-4-yl)amino)-5H-pyrrolo[3,4-d]pyrimidine-6(7H)-carboxamide]
The IC50 of the first is 8.3-fold higher: 91 nM for the first, 11 nM for the second.

Going from `CC1(C)c2cnc(NC3CCOCC3)nc2CN1C(=O)NCc1nc(-c2ccc(F)cc2)cs1` [compound 89, N-((4-(4-fluorophenyl)thiazol-2-yl)methyl)-5,5-dimethyl-2-((tetrahydro-2H-pyran-4-yl)amino)-5H-pyrrolo[3,4-d]pyrimidine-6(7H)-carboxamide] to `CC1(C)c2cnc(NC3CCOCC3)nc2CN1C(=O)NCc1ccc(S(C)(=O)=O)cc1` [compound 108, 5,5-dimethyl-N-(4-(methylsulfonyl)benzyl)-2-((tetrahydro-2H-pyran-4-yl)amino)-5H-pyrrolo[3,4-d]pyrimidine-6(7H)-carboxamide], the IC50 falls from 131 nM to 65 nM (2-fold).

Going from `CC1(CO)c2cnc(NC3CCOCC3)nc2CN1C(=O)NCc1ccccc1` (centres unmarked) [compound 90, N-benzyl-5-(hydroxymethyl)-5-methyl-2-((tetrahydro-2H-pyran-4-yl)amino)-5H-pyrrolo[3,4-d]pyrimidine-6(7H)-carboxamide] to `C[C@@H](NC(=O)N1Cc2nc(NC3CCOCC3)ncc2C1(C)CO)c1ccccc1` (stereo partly drawn) [compound 92, 5-(hydroxymethyl)-5-methyl-N-((R)-1-phenylethyl)-2-((tetrahydro-2H-pyran-4-yl)amino)-5H-pyrrolo[3,4-d]pyrimidine-6(7H)-carboxamide], the IC50 falls from 4020 nM to 1530 nM (2.6-fold).

First: O=C(NCCc1ccccc1)N1Cc2nc(NC3CCOCC3)ncc2C12CCC2 [compound 96, N-phenethyl-2′-((tetrahydro-2H-pyran-4-yl)amino)spiro[cyclobutane-1,5′-pyrrolo[3,4-d]pyrimidine]-6′(7′H)-carboxamide]
Second: O=C(Nc1cnn(Cc2ccccc2F)c1)N1Cc2nc(NC3CCOCC3)ncc2C12CCC2 [compound 99, N-(1-(2-fluorobenzyl)-1H-pyrazol-4-yl)-2′-((tetrahydro-2H-pyran-4-yl)amino)spiro[cyclobutane-1,5′-pyrrolo[3,4-d]pyrimidine]-6′(7′H)-carboxamide]
The IC50 of the first is 7.5-fold higher: 90 nM for the first, 12 nM for the second.

First: CNC(=O)c1cccc(CNC(=O)N2Cc3nc(NC4CCOCC4)ncc3C2(C)C)c1 [compound 100, 5,5-dimethyl-N-(3-(methylcarbamoyl)benzyl)-2-((tetrahydro-2H-pyran-4-yl)amino)-5H-pyrrolo[3,4-d]pyrimidine-6(7H)-carboxamide]
Second: CN(C)C(=O)c1cccc(CNC(=O)N2Cc3nc(NC4CCOCC4)ncc3C2(C)C)c1 [compound 101, N-(3-(dimethylcarbamoyl)benzyl)-5,5-dimethyl-2-((tetrahydro-2H-pyran-4-yl)amino)-5H-pyrrolo[3,4-d]pyrimidine-6(7H)-carboxamide]
The IC50 of the first is 11-fold lower: 45 nM for the first, 492 nM for the second. The first is the more potent here.

Going from `CNC(=O)C1CC(NC(=O)N2Cc3nc(NC4CCOCC4)ncc3C2(C)C)CN(Cc2ccccc2F)C1` (centres unmarked) [compound 102, N-(1-(2-fluorobenzyl)-5-(methylcarbamoyl)piperidin-3-yl)-5,5-dimethyl-2-((tetrahydro-2H-pyran-4-yl)amino)-5H-pyrrolo[3,4-d]pyrimidine-6(7H)-carboxamide] to `CNC(=O)C1CC(NC(=O)N2Cc3nc(NC4CCOCC4)ncc3C2(C)C)CN(Cc2cccc(Cl)c2)C1` (centres unmarked) [compound 103, N-(1-(3-chlorobenzyl)-5-(methylcarbamoyl)piperidin-3-yl)-5,5-dimethyl-2-((tetrahydro-2H-pyran-4-yl)amino)-5H-pyrrolo[3,4-d]pyrimidine-6(7H)-carboxamide], the IC50 rises from 2300 nM to 9190 nM (4-fold). The first is the more potent here.

Going from `CC1(C)c2cnc(NC3CCOCC3)nc2CN1C(=O)N[C@@H]1CCN(Cc2cccc(Cl)c2)C1` [compound 104] to `CCS(=O)(=O)c1cccc(CNC(=O)N2Cc3nc(NC4CCOCC4)ncc3C2(C)C)c1` [compound 111, N-(3-(ethylsulfonyl)benzyl)-5,5-dimethyl-2-((tetrahydro-2H-pyran-4-yl)amino)-5H-pyrrolo[3,4-d]pyrimidine-6(7H)-carboxamide], the IC50 falls from 37 nM to 16 nM (2.3-fold). The second is the more potent here.

`CC1(C)c2cnc(NC3CCOCC3)nc2CN1C(=O)Nc1cnn(Cc2ccccc2F)c1` [compound 105, N-(1-(2-fluorobenzyl)-1H-pyrazol-4-yl)-5,5-dimethyl-2-((tetrahydro-2H-pyran-4-yl)amino)-5H-pyrrolo[3,4-d]pyrimidine-6(7H)-carboxamide] and `CC1(C)c2cnc(NC3CCOCC3)nc2CN1C(=O)NCc1cc(F)cc(S(C)(=O)=O)c1` [compound 107, N-(3-fluoro-5-(methylsulfonyl)benzyl)-5,5-dimethyl-2-((tetrahydro-2H-pyran-4-yl)amino)-5H-pyrrolo[3,4-d]pyrimidine-6(7H)-carboxamide] are within 1.5-fold of each other in IC50: 39 nM for the first, 44 nM for the second.

Going from `CC1(C)c2cnc(NC3CCOCC3)nc2CN1C(=O)NCc1cc(Cl)cc(S(C)(=O)=O)c1` [compound 109, N-(3-chloro-5-(methylsulfonyl)benzyl)-5,5-dimethyl-2-((tetrahydro-2H-pyran-4-yl)amino)-5H-pyrrolo[3,4-d]pyrimidine-6(7H)-carboxamide] to `CCCS(=O)(=O)c1cccc(CNC(=O)N2Cc3nc(NC4CCOCC4)ncc3C2(C)C)c1` [compound 110, 5,5-dimethyl-N-(3-(propylsulfonyl)benzyl)-2-((tetrahydro-2H-pyran-4-yl)amino)-5H-pyrrolo[3,4-d]pyrimidine-6(7H)-carboxamide], the IC50 rises from 6 nM to 39 nM (6.5-fold).
